Experimental data: US11548880B2, “Modulators of hemoglobin” (Global Blood Therapeutics, Inc., priority 2018, dated 2023)

What was measured:
[1] = target: T1, PXR nuclear receptor (Homo sapiens, UniProt O75469); test: CYP (PXR) assay: PXR nuclear receptor activation in DPX2 reporter cells; assay type: cell-based; conditions: fold PXR activation, 24 h
T1 construct: expressed in transfected cells; host or cells: DPX2 (stably transfected human hepatoma cells)
T1 sequence (O75469 1-434): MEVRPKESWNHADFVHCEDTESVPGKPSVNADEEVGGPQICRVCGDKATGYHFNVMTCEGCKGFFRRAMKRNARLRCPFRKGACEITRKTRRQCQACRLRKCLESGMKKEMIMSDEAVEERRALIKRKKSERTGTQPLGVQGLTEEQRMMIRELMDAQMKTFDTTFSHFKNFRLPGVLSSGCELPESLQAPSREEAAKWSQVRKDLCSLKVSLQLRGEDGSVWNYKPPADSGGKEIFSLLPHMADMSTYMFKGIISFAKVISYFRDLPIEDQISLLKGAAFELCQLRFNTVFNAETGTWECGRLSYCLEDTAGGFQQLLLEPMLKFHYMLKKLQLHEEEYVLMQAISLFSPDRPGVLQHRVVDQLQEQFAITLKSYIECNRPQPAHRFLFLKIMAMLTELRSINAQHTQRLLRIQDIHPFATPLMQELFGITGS
Method: CYP (PXR) Assay: PXR nuclear receptor activation utilizing stably-transfected human hepatoma cell lines (DPX2) were seeded in a 96-well plate. Twenty-four hours after seeding, the cells were treated with selected concentrations of compounds in duplicate wells, and cells then returned to the incubator for an additional 24 h. At the end of this incubation period, the number of viable cells/well were determined using Promega's Cell Titer Fluor cytotoxicity assay. Subsequently, Promega's ONE-Glo were added to the same wells and reporter gene activity were assessed. The average luminescent units for each compound dose of two replicates were divided by the average for the DMSO solvent control to determine the fold-induction. In accordance with industry standard, a threshold of ≥2.5-fold was used to flag compounds that have in vivo CYP induction risk.

[2] = Rat PK, oral gavage; assay type: in vivo, Sprague-Dawley rats; conditions: male, Sprague-Dawley, rat, po, 10 mg/kg, oral gavage 10 mg/kg; for blood plasma ratio: whole blood and plasma, AUClast in blood divided by AUClast in plasma, rats; for half-life: whole blood, fasted male Sprague-Dawley rats, 0.5% methylcellulose suspension, blood
Method: Rat PK: A group of fasted male Sprague-Dawley rats were dosed via oral gavage at 10 mg/kg with test articles formulated in 0.5% methylcellulose suspension. Blood samples were collected through jugular vein at pre-selected time points. Blood samples were prepared by protein precipitation with ACN, vortexed and then centrifuged before supernatants were transferred for bioanalysis. Test article concentrations were measured by HPLC-MS-MS. Pharmacokinetic parameters were calculated using non-compartment analysis. The blood/plasma ratio was calculated by dividing the AUClast (i.e., the area under the curve calculated from t=0 to the last detectable time-point) in blood by the AUClast in plasma. The T1/2 was calculated via a linear regression of the terminal phase of the blood-time concentration profile.

[3] = target: T2, Hb (Homo sapiens, UniProt P68871+P69905); test: Whole blood assay: oxygen equilibrium curves (Hemox Analyzer), change in p50; assay type: cell-based; conditions: whole blood incubated 1 h at 37° C., equimolar ratio of hemoglobin to compound
T2 construct: from tissue; host or cells: whole blood
Method: Whole blood assay: Oxygen equilibrium curves (OECs) were collected using a TCS Hemox Analyzer (TCS Scientific Company, New Hope, Pa., USA) to measure changes in the binding affinity of O2 to Hb. Whole blood was incubated for 1 h at 37° C. with the indicated compounds in an equimolar ratio of hemoglobin to compound and diluted into TES (2-[[1,3-dihydroxy-2-(hydroxymethyl)propan-2-yl]amino]ethanesulfonic acid)/saline buffer prior to measurements. For example, for whole blood at 20% hematocrit [Hct], which corresponds to 1 mM Hb, a compound concentration of 1 mM was used (for example, for compounds 1-5), and the incubated sample diluted 50- to 100-fold. The concentration for compounds 6-44 (Diastereomers 1 and 2) varied but remained in equimolar ratio to hemoglobin. The diluted samples were then oxygenated with compressed air within the Hemox Analyzer and the OECs were collected during deoxygenation as previously described (Guarnone et al., Haematologica, 1995, 80, 426-430). p 50 (partial pressure of O2 at which Hb is 50% saturated with O2) values were obtained using a non-linear regression analysis. Percentage change in p50 [Δp50(%)] was calculated as follows: Δp50(%)=[(p50 of control)−p50 with compound)/p50 control]×100.

T2 sequence (P69905 2-142 limits assumed): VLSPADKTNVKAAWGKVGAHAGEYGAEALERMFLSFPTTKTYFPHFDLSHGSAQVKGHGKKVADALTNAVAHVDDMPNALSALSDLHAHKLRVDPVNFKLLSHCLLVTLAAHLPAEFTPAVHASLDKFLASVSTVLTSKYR
T2 sequence (P68871 2-147 limits assumed): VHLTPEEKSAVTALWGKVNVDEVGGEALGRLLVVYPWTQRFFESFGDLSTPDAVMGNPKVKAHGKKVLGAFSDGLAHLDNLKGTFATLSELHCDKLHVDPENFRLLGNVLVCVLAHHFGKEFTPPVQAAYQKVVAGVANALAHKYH

O=Cc1c(O)cccc1OC[C@@H]1COCCN1C(=O)c1ccccc1 [Reference Compound B, reference compound]
CYP (PXR) Flag ([1]; at 30 μM): Y (PXR activation ≥ 2.5-fold) | blood plasma ratio [2]: 98 | half-life [2]: 29.8 h

Cc1ncccc1C(=O)N1CCCC[C@H]1COc1cccc(O)c1C=O [Reference Compound C, reference compound]
CYP (PXR) Flag ([1]; at 25 μM): Y^1 (PXR activation ≥ 2.5-fold)

O=Cc1c(O)cccc1OCC1CSCCN1C(=O)c1cccnc1CO (single isomer, unassigned) [Compound 13 (Enantiomer 1), 2-hydroxy-6-((4-(2-(hydroxymethyl)nicotinoyl)-thiomorpholin-3-yl)-methoxy)benzaldehyde]
Delta-p50 (%) [3]: 80.6% | CYP (PXR) Flag ([1]; at 30 μM): N (PXR activation < 2.5-fold) | blood plasma ratio [2]: 230 | half-life [2]: 88 h

O=Cc1c(O)cccc1OC[C@@H]1CCCCN1C(=O)c1cccnc1CCO [Compound 1, (S)-2-hydroxy-6-((1-(2-(2-hydroxyethyl)nicotinoyl)piperidin-2-yl)methoxy)benzaldehyde]
Delta-p50 (%) [3]: 77.3% | CYP (PXR) Flag ([1]; at 25 μM): N^1 (PXR activation < 2.5-fold) | blood plasma ratio [2]: 162 | half-life [2]: 58 h

O=Cc1c(O)cccc1OC[C@@H]1COCCN1C(=O)c1cccnc1CO [Compound 12, (S)-2-hydroxy-6-((4-(2-(hydroxymethyl)nicotinoyl)morpholin-3-yl)methoxy)benzaldehyde]
Delta-p50 (%) [3]: 76.7% | CYP (PXR) Flag ([1]; at 30 μM): N (PXR activation < 2.5-fold) | blood plasma ratio [2]: 131 | half-life [2]: 58 h

O=Cc1c(O)cccc1OC[C@@H]1COCCN1C(=O)c1cccnc1CCO [Compound 8, (S)-2-hydroxy-6-((4-(2-(2-hydroxyethyl)nicotinoyl)morpholin-3-yl)methoxy)benzaldehyde]
Delta-p50 (%) [3]: 79.8% | CYP (PXR) Flag ([1]; at 30 μM): N (PXR activation < 2.5-fold) | blood plasma ratio [2]: 105 | half-life [2]: 69 h

O=Cc1c(O)cccc1OC[C@@H]1CCCCN1C(=O)c1cccnc1 [Reference Compound A, reference compound]
CYP (PXR) Flag ([1]; at 30 μM): Y (PXR activation ≥ 2.5-fold) | blood plasma ratio [2]: 75 | half-life [2]: 29 h
